According to patent publication US20210198277A1, “AMINE-SUBSTITUTED ARYL OR HETEROARYL COMPOUNDS” (Epizyme, Inc., priority 2016, published 2021):
Read-outs that look alike come from different tables or passages of the source.

Legend:
human EHMT2 913-1193 = biological target: T1, human EHMT2 913-1193 (Homo sapiens, UniProt Q96KQ7); test: EHMT2 enzyme assay on histone peptide substrate (EHMT2 PEP); type: biochemical
T1 construct: recombinant purified human EHMT2 913-1193, Viva; purchased Viva
T1 sequence (Q96KQ7 913-1193): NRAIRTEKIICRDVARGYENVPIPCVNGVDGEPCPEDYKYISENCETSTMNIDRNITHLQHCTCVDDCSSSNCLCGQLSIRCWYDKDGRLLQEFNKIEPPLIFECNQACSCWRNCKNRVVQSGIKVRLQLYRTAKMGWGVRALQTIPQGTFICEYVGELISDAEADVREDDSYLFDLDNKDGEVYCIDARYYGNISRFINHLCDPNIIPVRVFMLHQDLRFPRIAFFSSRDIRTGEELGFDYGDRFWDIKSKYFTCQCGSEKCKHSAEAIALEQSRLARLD
In short: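 Compounds (10-point, 3-fold dilutions, top 50 μM final, 2% DMSO) preincubated 30 min with 0.031 nM EHMT2 in 20 mM Bicine pH 7.5, 0.002% Tween 20, 0.005% gelatin, 1 mM TCEP. Biotinylated histone peptide methylated with ^3H-SAM 60 min at room temperature. Quenched with unlabeled SAM; product captured on streptavidin Flashplate, scintillation counted.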

EHMT1 = biological target: T2, EHMT1 (Homo sapiens, UniProt Q9H9B1); test: EHMT1 enzyme assay on peptide substrate (EHMT1 PEP); type: biochemical
T2 sequence (Q9H9B1 1-1298): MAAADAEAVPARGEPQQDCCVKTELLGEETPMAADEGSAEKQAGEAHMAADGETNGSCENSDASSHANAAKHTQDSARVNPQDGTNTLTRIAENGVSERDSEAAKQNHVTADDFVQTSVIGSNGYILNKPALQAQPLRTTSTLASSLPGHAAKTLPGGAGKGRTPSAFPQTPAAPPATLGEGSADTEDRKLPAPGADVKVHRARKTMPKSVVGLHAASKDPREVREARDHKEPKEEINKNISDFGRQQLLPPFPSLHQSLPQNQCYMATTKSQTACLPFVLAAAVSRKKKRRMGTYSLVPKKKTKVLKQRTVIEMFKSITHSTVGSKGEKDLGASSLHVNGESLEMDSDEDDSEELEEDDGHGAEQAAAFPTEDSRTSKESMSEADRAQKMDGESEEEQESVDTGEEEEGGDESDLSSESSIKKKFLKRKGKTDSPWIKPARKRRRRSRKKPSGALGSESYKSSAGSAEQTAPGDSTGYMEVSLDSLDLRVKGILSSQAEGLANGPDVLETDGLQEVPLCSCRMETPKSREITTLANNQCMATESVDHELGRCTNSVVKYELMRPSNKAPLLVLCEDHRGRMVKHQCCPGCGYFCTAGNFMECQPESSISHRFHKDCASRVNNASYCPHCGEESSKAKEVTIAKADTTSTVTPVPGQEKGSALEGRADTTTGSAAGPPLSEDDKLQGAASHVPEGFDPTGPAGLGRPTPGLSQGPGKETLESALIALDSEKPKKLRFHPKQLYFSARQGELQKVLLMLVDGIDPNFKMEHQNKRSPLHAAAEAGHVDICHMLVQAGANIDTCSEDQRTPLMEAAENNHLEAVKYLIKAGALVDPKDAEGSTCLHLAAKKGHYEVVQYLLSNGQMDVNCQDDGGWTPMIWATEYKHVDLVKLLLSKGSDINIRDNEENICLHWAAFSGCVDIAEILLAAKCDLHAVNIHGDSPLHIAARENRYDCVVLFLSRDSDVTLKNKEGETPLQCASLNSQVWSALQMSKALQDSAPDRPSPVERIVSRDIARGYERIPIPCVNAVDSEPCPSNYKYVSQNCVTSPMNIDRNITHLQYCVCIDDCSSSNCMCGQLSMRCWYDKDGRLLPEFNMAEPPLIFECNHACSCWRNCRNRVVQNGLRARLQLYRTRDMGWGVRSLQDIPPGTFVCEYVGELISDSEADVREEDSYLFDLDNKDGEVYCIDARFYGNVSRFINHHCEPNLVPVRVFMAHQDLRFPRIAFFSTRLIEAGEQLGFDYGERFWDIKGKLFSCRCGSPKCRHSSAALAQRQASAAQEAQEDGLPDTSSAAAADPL

[1] = Table VI, read-out: EHMT2 PEP IC50
[2] = Table VI, read-out: EHMT1 PEP IC50
[3] = Table III, read-out: EHMT2 PEP (IC50 μM)
[4] = Table III, read-out: EHMT1 PEP (IC50 μM)

SMILES | IC50 (human EHMT2 913-1193; [1]) [µM] | IC50 (EHMT1; [2]) [µM] | IC50 (human EHMT2 913-1193; [3]) [µM] | IC50 (EHMT1; [4]) [µM]
CNc1cc(C2CCOCC2)c2cc(OC)c(OC[C@@H]3CCNC3)cc2n1 [Compound 802] | < 0.1 | < 0.1 | – | –
COc1ccc(NCCCN2CCCC2)cc1Nc1nccc(NCC2CCOCC2)n1 [Compound 352] | – | – | > 10 | > 10
COc1cc2c(C3CCN(C(C)=O)CC3)cc(C)nc2cc1OCCCN1CCCC1 [Compound 834] | 0.1 to 1 | 0.1 to 1 | – | –
CNc1cc(C2CCOCC2)c2cc(OC)c(OC[C@@H]3CCN(C)C3)cc2n1 [Compound 803] | 0.1 to 1 | < 0.1 | – | –
CNc1cc(C2CCCCC2)c2cc(OC)c(OCCCN3CCCC3)cc2n1 [Compound 816] | < 0.1 | < 0.1 | – | –
CNc1cc(CC2CCOCC2)c2cc(OC)c(OCCCN3CCCC3)cc2n1 [Compound 823] | < 0.1 | < 0.1 | – | –
COc1cc2c(C)cc(N3CCCCC3)nc2cc1OCCCN1CCCC1 [Compound 810] | 0.1 to 1 | < 0.1 | – | –
CNc1cc(C)nc(Nc2ccc(OC)c(C#CC3CCCN3)c2)n1 (stereo not shown) [Compound 846] | < 0.1 | < 0.1 | – | –
COc1cc2c(C3CCOCC3)cc(N3CCCCC3)nc2cc1OCCCN1CCCC1 [Compound 824] | 0.1 to 1 | 0.1 to 1 | – | –
COc1cnc(Nc2cc(C)nc3[nH]ccc23)cc1OCCCN1CCCC1 [Compound 336, N-(5-methoxy-4-(3-(pyrrolidin-1-yl)propoxy)pyridin-2-yl)-6-methyl-1H-pyrrolo[2,3-b]pyridin-4-amine] | – | – | 0.1 to 1 | 0.1 to 1
CNc1cc(C)nc(Nc2cnc(OC)c(OC[C@@H]3CCN(C4CCC4)C3)c2)n1 [Compound 798] | 0.1 to 1 | < 0.1 | – | –
CNc1cc(C)nc(Nc2ccc(OC)c(C#CC3CCNC3)c2)n1 (stereo not shown) [Compound 845] | 0.1 to 1 | < 0.1 | – | –
COc1cc2c(C3CCOCC3)cc(N(C)C)nc2cc1OCCCN1CCCC1 [Compound 825] | 0.1 to 1 | 0.1 to 1 | – | –
CNc1cc(C2CCN(CC(F)(F)F)CC2)c2cc(OC)c(OCCCN3CCCC3)cc2n1 [Compound 833] | < 0.1 | < 0.1 | – | –
COc1cnc(Nc2nc(C)nc3[nH]ccc23)cc1OCCCN1CCCC1 [Compound 326, N-(5-methoxy-4-(3-(pyrrolidin-1-yl)propoxy)pyridin-2-yl)-2-methyl-7H-pyrrolo[2,3-d]pyrimidin-4-amine] | – | – | 0.1 to 1 | 0.1 to 1
CNc1cc(C)nc(Nc2ccc(OC)c(O[C@H]3C[C@H](CN(C)C)C3)c2)n1 [Compound 331, N^2-(3-((1r,3r)-3-((dimethylamino)methyl)cyclobutoxy)-4-methoxyphenyl)-N^4,6-dimethylpyrimidine-2,4-diamine] | – | – | > 10 | > 10
COc1ccc(Nc2nccc(NCC3CCOCC3)n2)cc1OC1CCC2(CC1)CCN(C)C2 (stereo not shown) [Compound 259, N^2-(4-methoxy-3-((2-methyl-2-azaspiro[4.5]decan-8-yl)oxy)phenyl)-N^4-((tetrahydro-2H-pyran-4-yl)methyl)pyrimidine-2,4-diamine] | – | – | > 10 | > 10
COc1cc2c(C3CCN(C)CC3)cc(C#N)nc2cc1OCCCN1CCCC1 [Compound 790] | 0.1 to 1 | < 0.1 | – | –
COc1cc2c(C3CCN([C@@H]4CCOC4)CC3)cc(C)nc2cc1OCCCN1CCCC1 [Compound 863] | < 0.1 | < 0.1 | – | –
COc1ccc(Nc2nccc(NCC3CCOCC3)n2)cc1OC1CCC2(CC1)CN(C)C2 [Compound 260, N^2-(4-methoxy-3-((2-methyl-2-azaspiro[3.5]nonan-7-yl)oxy)phenyl)-N^4-((tetrahydro-2H-pyran-4-yl)methyl)pyrimidine-2,4-diamine] | – | – | > 10 | > 10
COc1ccc(Nc2nccc(NCC3CCOCC3)n2)cc1NCCCN1CCCC1 [Compound 350] | – | – | 0.1 to 1 | 0.1 to 1
CNc1cc(C)nc(Nc2ccc(OC)c(CN[C@@H]3CCNC3)c2)c1 [Compound 814] | 1 to 10 | 1 to 10 | – | –
CNc1cc(C)nc(Nc2ccc(OC)c(C#CC3CCN(C)C3)c2)n1 (stereo not shown) [Compound 847] | 0.1 to 1 | < 0.1 | – | –
CCS(=O)(=O)N1CCC(c2cc(C)nc3cc(OCCCN4CCCC4)c(OC)cc23)CC1 [Compound 836] | 0.1 to 1 | 0.1 to 1 | – | –
CNc1cc(C)nc(Nc2ccc(OC)c(O[C@H]3C[C@H](N(C)C)C3)c2)n1 (single isomer, unassigned) [Compound 329, N^2-(3-((1r,3r)-3-(dimethylamino)cyclobutoxy)-4-methoxyphenyl)-N^4,6-dimethylpyrimidine-2,4-diamine] | – | – | 1 to 10 | 1 to 10
CNc1ccnc(Nc2ccc(OC)c(OCCCN3CC(F)C3)c2)n1 [Compound 354] | – | – | 1 to 10 | 0.1 to 1
COc1cc2c(C3CCN(CCC(F)(F)F)CC3)cc(C)nc2cc1OCCCN1CCCC1 [Compound 838] | < 0.1 | < 0.1 | – | –
CNc1cc(C)c2cc(OC)c(C#CCN3CCCC3)cc2n1 [Compound 859] | < 0.1 | < 0.1 | – | –

Now from value to compound:

IC50 (human EHMT2 913-1193; [1]) [µM] | IC50 (EHMT1; [2]) [µM] | IC50 (human EHMT2 913-1193; [3]) [µM] | IC50 (EHMT1; [4]) [µM] | SMILES
– | – | 1 to 10 | 1 to 10 | COc1ccc(Nc2ccc3ncc(C)n3n2)cc1OCCCN1CCCC1 [Compound 347]
> 10 | > 10 | – | – | COc1ccc(Nc2nn(C)c3cnccc23)cc1OCCCN1CCCC1 [Compound 794]
– | – | > 10 | > 10 | COc1ccc(Nc2ccc3ncn(C)c3n2)cc1OCCCN1CCCC1 [Compound 342]
> 10 | > 10 | – | – | CNC(=O)c1cc(C)nc(Nc2ccc(OC)c(OCCCN3CCCC3)c2)n1 [Compound 854]
> 10 | > 10 | – | – | COc1ccc(Nc2cc(C)[nH]n2)cc1OCCCN1CCCC1 [Compound 796]
– | – | 0.1 to 1 | 0.1 to 1 | COc1cnc(Nc2ccnc3[nH]ccc23)cc1OCCCN1CCCC1 [Compound 335, N-(5-methoxy-4-(3-(pyrrolidin-1-yl)propoxy)pyridine-2-yl)-1H-pyrrolo[2,3-b]pyridin-4-amine]
– | – | > 10 | > 10 | COc1ccc(Nc2cccc3cn(C)nc23)cc1OCCCN1CCCC1 [Compound 346]
– | – | > 10 | > 10 | COc1ccc(Nc2ccc3cnn(C)c3c2)cc1OCCCN1CCCC1 [Compound 341]
– | – | 0.1 to 1 | 0.1 to 1 | CNc1nc(Nc2ccc(OC)c(OCCCN3CCCC3)c2)nc2c1CCC2 [Compound 328, N^2-(4-methoxy-3-(3-(pyrrolidin-1-yl)propoxy)phenyl)-N^4-methyl-6,7-dihydro-5H-cyclopenta[d]pyrimidine-2,4-diamine]
– | – | 1 to 10 | 1 to 10 | CNc1cc(Nc2cc(OCCCN3CCCC3)c(OC)cn2)ncn1 [Compound 324, N^4-(5-methoxy-4-(3-(pyrrolidin-1-yl)propoxy)pyridin-2-yl)-N^6-methylpyrimidine-4,6-diamine]
– | – | 1 to 10 | 0.1 to 1 | COc1ccc(Nc2nc(C)c(F)c(NC(C)C)n2)cc1OCCCN1CCCC1 [Compound 337]
– | – | > 10 | > 10 | CNc1cc(Nc2cc(OCCCN3CCCC3)c(OC)cn2)cnn1 [Compound 323, N^5-(5-methoxy-4-(3-(pyrrolidin-1-yl)propoxy)pyridin-2-yl)-N^3-methylpyridazine-3,5-diamine]
– | – | > 10 | > 10 | COc1ccc(Nc2ncc3ncn(C)c3n2)cc1OCCCN1CCCC1 [Compound 343]
